In patent US8962024B2, “Method for treating primary insomnia” (Neurim Pharmaceuticals (1991) Ltd, priority 2001, dated 2015):

Assays:
[1] = system: elderly primary insomnia patients; assay: Full-night polysomnographic recordings after 3 weeks of treatment (Example 1); assay type: in vivo, human
Protocol: (§1) The effect of a prolonged-release formulation of melatonin on sleep quantity and quality in 40 elderly primary insomnia patients (aged 76 [SD 8] years) were studied in a randomized, double-blind, two parallel group study. The subjects were treated for 3 weeks every evening with melatonin (2 mg prolonged-release formulation) or placebo. Full-night polysomnographic recordings were performed on the last two days of treatment to measure quantitative aspects of sleep. On each morning following sleep recording in the laboratory, a battery of psychomotor tests was taken by all patients to assess daytime vigilance. In addition, patients recorded every day in diaries their perceived quality of sleep the previous night.

insomniac patients = conditions: 75 mg per os at 10 PM daily for 14 consecutive days, cited from earlier work
[2] = system: primary insomnia patients (aged 20-80 years); assay: Subjectively assessed quality of sleep and daytime alertness on 100 mm line (Example 3); assay type: in vivo, human; conditions: for Change in perceived daytime alertness, mean in mm / Change in perceived quality of sleep, mean in mm: 2 mg per night prolonged-release, 3 weeks
Protocol: The effect of a prolonged-release formulation of melatonin on subjectively assessed sleep quality and daytime vigilance in 170 elderly primary insomnia patients (aged 68.5 [SD 8.3] years) were studied in a randomized, double-blind, two parallel group study. The subjects were treated for 2 weeks with placebo to establish baseline characteristics and then for 3 weeks with melatonin (2 mg per night of prolonged-release formulation) or placebo. On the last three days of the baseline and treatment periods patients were asked to assess the quality of their sleep the previous night and their feeling in the morning. The quality of sleep question was “How would you compare the quality of sleep using the medication with non-medicated (your usual) sleep?” The patients marked the level of their perceived quality of sleep on a 100 mm, non-hatched horizontal line with two endpoints. The left endpoint was labeled “more restless than usual” and the right endpoint was labeled “more restful than usual”. The waking state question was “How do you feel now?” The patients marked the level of their perceived waking state on a 100 mm, non-hatched horizontal line with two endpoints. The left endpoint was labeled “tired” and the right endpoint was labeled “alert”. The distance of the patient mark from the right endpoint in mm was measured (a reduction in value therefore indicates a better sleep or less tired state). The mean distance across the three nights was calculated. The effect of melatonin on subjectively assessed sleep quality and daytime vigilance in 131 primary insomnia patients (aged 20-80 years) were studied in a randomised, double-blind, parallel group study. The subjects were treated for 1 week with placebo to establish baseline characteristics and then for 3 weeks with melatonin (2 mg per night of prolonged-release formulation) or placebo. On the last three days of the baseline and treatment periods patients were asked to assess the quality of their sleep the previous night and their feeling at daytime as described in Example 2.

[3] = system: elderly primary insomnia patients; assay: Battery of psychomotor tests to assess daytime vigilance (Example 1); assay type: in vivo, human; conditions: 2 mg prolonged-release formulation
Protocol: as §1

[4] = system: polysomnographically pre-screened insomniacs; conditions: 1 and 5 mg at 10:45 pm for one night each, cited from earlier work
[5] = system: elderly patients with sleep maintenance insomnia; conditions: immediate and controlled release formulations, 0.5 and 5 mg, cited from earlier work
[6] = system: elderly primary insomnia patients; assay: Patient diaries of perceived quality of sleep (Example 1); assay type: in vivo, human; conditions: 2 mg prolonged-release formulation, 3 weeks
Protocol: as §1

[7] = system: elderly primary insomnia patients; assay: Subjectively assessed quality of sleep and daytime alertness on 100 mm line (Example 2); assay type: in vivo, human; conditions: 2 mg per night prolonged-release, 3 weeks
Protocol: The effect of a prolonged-release formulation of melatonin on subjectively assessed sleep quality and daytime vigilance in 170 elderly primary insomnia patients (aged 68.5 [SD 8.3] years) were studied in a randomized, double-blind, two parallel group study. The subjects were treated for 2 weeks with placebo to establish baseline characteristics and then for 3 weeks with melatonin (2 mg per night of prolonged-release formulation) or placebo. On the last three days of the baseline and treatment periods patients were asked to assess the quality of their sleep the previous night and their feeling in the morning. The quality of sleep question was “How would you compare the quality of sleep using the medication with non-medicated (your usual) sleep?” The patients marked the level of their perceived quality of sleep on a 100 mm, non-hatched horizontal line with two endpoints. The left endpoint was labeled “more restless than usual” and the right endpoint was labeled “more restful than usual”. The waking state question was “How do you feel now?” The patients marked the level of their perceived waking state on a 100 mm, non-hatched horizontal line with two endpoints. The left endpoint was labeled “tired” and the right endpoint was labeled “alert”. The distance of the patient mark from the right endpoint in mm was measured (a reduction in value therefore indicates a better sleep or less tired state). The mean distance across the three nights was calculated.

[8] = system: patients with psychophysiological insomnia; conditions: 5 mg at 8:00 pm for 1 week; cited from earlier work
[9] = system: healthy elderly volunteers; assay: Battery of psychomotor tasks after an evening tablet (Example 4); assay type: in vivo, human
Protocol: (§2) The effect of melatonin (2 mg prolonged-release formulation), N, N, 6-trimethyl-2-p-tolylimidazo[1,2-a]pyridine-3-acetamide (zolpidem; 10 mg) and placebo on psychomotor skills and driving performance were assessed in 16 healthy elderly volunteers age 59.4 years (SD 3.2). In a randomized, double-blind, crossover study the subjects were given a tablet of placebo in the evening to establish baseline and then a tablet of melatonin, zolpidem or placebo in a random order in the evening with one week with no treatment in between treatments. A battery of psychomotor tasks, driving performance and wake EEG during a driving test were studied in the patients at pre-selected intervals after the administration of the tablet.

[10] = system: healthy elderly volunteers; assay: Driving performance test after an evening tablet (Example 4); assay type: in vivo, human; conditions: 2 hours post-dosing; zolpidem 10 mg, melatonin prolonged release 2 mg
Protocol: as §2

[11] = 2 mg prolonged-release formulation, 3 weeks, versus placebo
[12] = zolpidem 10 mg single evening tablet

COc1ccc2[nH]cc(CCNC(C)=O)c2c1 [melatonin]
sleep onset latency (SL) time shortened on average, compared to placebo ([1]; 2 mg prolonged-release formulation every evening for 3 weeks, P=0.011): 9 min | duration of wake prior sleep onset (DWAPSO) compared to placebo ([1]; 2 mg prolonged-release formulation, 3 weeks, p=0.011): improved significantly | % of time spent asleep prior to sleep onset (DWAPSOP) compared to placebo ([1]; 2 mg prolonged-release formulation, 3 weeks, p=0.02): improved significantly | sleep architecture or all night EEG spectral analysis [1, 11]: no differences between groups | sleep maintenance variables (number of awakenings, DWASO, sleep efficiency, total sleep time) [1, 11]: no differences between melatonin and placebo | subjective assessment of total sleep time and daytime alertness (insomniac patients; 13 patients): significant increase | patients reporting no significant effect on subjective feelings of well-being (insomniac patients): 7/13 | quality of sleep and daytime alertness ([2]; 55 years and older patients): improvement | Change in perceived daytime alertness, mean in mm ([2]; Patients aged 55 and over): −16.3 mm | Change in perceived quality of sleep, mean in mm ([2]; Patients aged 55 and over): −13.1 mm | Change in perceived daytime alertness, mean in mm ([2]; Patients aged less than 55): −4.0 mm | Change in perceived quality of sleep, mean in mm ([2]; Patients aged less than 55): −1.6 mm | quality of sleep and daytime alertness compared to placebo ([2]; patients <55 years of age): significant worsening | Critical Flicker fusion test and total reaction time, melatonin vs. placebo ([3]; at the end of treatment): significant treatment effects | psychomotor skills compared to placebo-treated group ([3]; morning after sleep recording): significantly higher | sleep latency, sleep efficiency, total sleep time, wake after sleep onset ([4]; 10 insomniacs): did not alter | patient-reported sleep quality [4]: improved | rested in the morning, patient-reported [4]: not more rested | total sleep time as believed by the patients [4]: shorter | sleep latency ([5]; 30 min before sleep): reduced | reported sleep quality or daytime measure of mood and alertness [5]: No melatonin-induced changes | wake time after sleep onset or total sleep time [5]: did not alter | ease of getting to sleep as evaluated in diaries, compared to placebo [6]: did not evaluate the ease of getting to sleep as being better | quality of sleep as judged by patients in diaries [6]: improved | quality of sleep and daytime alertness compared to placebo [7]: significantly improved | Change in perceived quality of sleep, change in mm mean ([7]; 170 elderly patients, reduction = better sleep): −24.3 mm | Change in perceived daytime alertness, change in mm mean ([7]; 170 elderly patients, reduction = less tired): −16.8 mm | patients unable to distinguish the period of active melatonin treatment [8]: 8 patients out of 15 | sleep quantity or quality [8]: no reported change

Cc1ccc(-c2nc3ccc(C)cn3c2CC(=O)N(C)C)cc1 [zolpidem, N, N, 6-trimethyl-2-p-tolylimidazo[1,2-a]pyridine-3-acetamide]
Memory efficiency, both recalls (immediate and delayed), compared to placebo and melatonin 2 mg ([9]; zolpidem 10 mg): decreased | impairments compared to placebo across measures of attention, episodic secondary memory and motor coordination [9, 12]: several acute impairments | time post-dosing by which acute impairments were resolved [9, 12]: ≤ 12.5 h | number of collisions [10]: increased number of collisions
